Test system: gastric acid secretion
Test: perfused rat stomach preparation (histamine-stimulated acid secretion, perfusate pH)
Format: in vivo, male Wistar rats
Details: bolus intravenous injection, maximal reduction in hydrogen-ion concentration as percentage of control, histamine infusion, urethane anaesthetised rat
Experimental: The ability of the compounds of the invention to modify the pH of gastric acid secretion was investigated as follows:
The perfused rat stomach preparation
The lumen of the stomach of male Wistar rats (approximately 200 g bodyweight) was perfused, via a cannula designed to reduce the dead space of the stomach, with 5% glucose solution (37^00) at the rate of 3 ml/min. The perfusate was forced over the surface of the secretory mucosa only, the antrum being excluded. The effluent then passed over a microflow type glass pH electrode via collecting funnel situated in the non-glandular forestomach.
The secretagogue histamine was administered as a constant intravenous infusion to produce a steady rate of acid secretion. Test compounds were administered in solution as bolus intravenous injections and any effect on the pH of the perfusate noted. The perfusate pH was recorded on a potentiometric recorder and anti-secretory responses were measured in terms of the maximal reduction in hydrogen-ion concentration expressed as a percentage of the 'control' concentrations.

| Compound | Inhibition (dose 2 (µmol/kg)) | other results |
| --- | --- | --- |
| 2-[(4-[3,5-dichlorobenzyloxy]-3-methylpyrid-2-yl)methyl sulphinyl]benzimidazole [Example 8b] | 80% | – |
| Cc1c(OCc2ccccc2)ccnc1C[S+]([O-])c1nc2ccccc2[nH]1 (centres unmarked) [Example 1b, 2-[(4-Benzyloxy-3-methylpyrid-2-yl)methylsulphinyl]-benzimidazole] | – | Inhibition (dose 0.5 µmol/kg): 82% |
| COc1ccc(COc2ccnc(C[S+]([O-])c3nc4ccccc4[nH]3)c2C)cc1 (centres unmarked) [Example 7b, 2-[(4-[4-methoxybenzyloxy]-3-methylpyrid-2-yl)methylsulphinyl]benzimidazole] | 86% | – |
| Cc1c(OCc2ccc(F)cc2)ccnc1C[S+]([O-])c1nc2ccccc2[nH]1 (centres unmarked) [Example 10b, 2-[(4-[4-Fluorobenzyloxy]-3-methylpyrid-2-yl)methylsulphinyl]benzimidazole] | – | Inhibition (dose 1 (µmol/kg)): 80% |
| [O-][S+](Cc1cc(OCCc2ccccc2)ccn1)c1nc2ccccc2[nH]1 (centres unmarked) [Example 18b, 2-[(4'-Phenethyloxypyrid-2-yl)methylsulphinyl]benzimidazole] | 100% | – |
| Cc1c(Oc2ccccc2)ccnc1C[S+]([O-])c1nc2ccccc2[nH]1 (centres unmarked) [Example 20b, 2-[(3-Methyl-4-phenoxypyrid-2-yl)methylsulphinyl]-benzimidazole] | 72% | – |
| [O-][S+](Cc1cc(OCc2ccc(F)cc2)ccn1)c1nc2ccccc2[nH]1 (centres unmarked) [Example 21b, 2-[(4-(4-Fluorobenzyloxy)pyrid-2-yl)methylsuphinyl]-benzimidazole] | 100% | – |
| Cc1cnc(C[S+]([O-])c2nc3ccccc3[nH]2)cc1OCc1ccccc1 (centres unmarked) [Example 24b] | – | Inhibition (dose 2.5 (µmol/kg)): 91% |

Reference: patent EP0167943A2, “Benzimidazole derivatives, process for their preparation, and their use as pharmaceuticals” (BEECHAM GROUP PLC, priority 1984, dated 1986)
